Experimental data from ChEMBL document CHEMBL1811755, “α-Tocotrienol quinone modulates oxidative stress response and the biochemistry of aging” (Bioorg Med Chem Lett, 2011).
Calls of active or inactive are those of the source. The rule behind the calls is not given here.

Columns and labels:
[1] = Cytoprotectant activity against L-buthionine-(S,R)-sulfoximine-induced cell death in Friedreich ataxia patient fibroblasts assessed as increase of cell viability; type: functional, cell-based; details: Homo sapiens, Fibroblast
Rattus norvegicus [2] = assay: In vivo metabolic stability in rat assessed as parent compound remaining at 5 mg/kg, iv; type: ADME, organism-based; parameters: dose 5 mg/kg, route intravenous
Rattus norvegicus [3] = assay: In vivo metabolic stability in rat assessed as parent compound remaining at 25 mg/kg, po; type: ADME, organism-based; parameters: dose 25 mg/kg, route oral
Mus musculus [4] = assay: Ratio of drug level in mouse heart to serum at 25 mg/kg, ip; details: other tissue
[5] = AUCt in dog plasma at 2 mg/kg, iv; type: ADME, organism-based, Canis lupus familiaris; parameters: dose 2 mg/kg, route intravenous
[6] = Toxicity in dog administered orally once daily for 28 days; type: organism-based, Canis lupus familiaris; details: in vivo, po
[7] = Bioavailability in fed rat plasma at 10 mg/kg, po; type: ADME, organism-based
[8] = AUCt in rat plasma at 10 mg/kg, po; type: ADME, organism-based; parameters: dose 10 mg/kg, route oral
Brain [9] = assay: AUC (infinity) in mouse brain at 25 mg/kg, ip; type: ADME, organism-based; parameters: time infinity, dose 25 mg/kg, route intraperitoneal; details: in vivo
[10] = AUC (infinity) in rat plasma at 10 mg/kg, po; type: ADME, organism-based; parameters: time infinity, dose 10 mg/kg, route oral
[11] = Apparent volume of distribution in dog plasma at 2 mg/kg, iv; type: ADME, organism-based, Canis lupus familiaris; parameters: dose 2 mg/kg, route intravenous; details: read-out: Vz
[12] = Cmax in rat plasma at 10 mg/kg, po; type: ADME, organism-based; parameters: dose 10 mg/kg, route oral
[13] = Plasma concentration in dog at 300 mg/kg/day, po qd for 7 days; type: ADME, organism-based, Canis lupus familiaris; parameters: route oral
[14] = Terminal half life in mouse plasma at 25 mg/kg, ip; type: ADME, organism-based; parameters: dose 25 mg/kg, route intraperitoneal; details: read-out: beta t1/2 (converted)
[15] = Cmax in mouse plasma at 25 mg/kg, ip; type: ADME, organism-based; parameters: dose 25 mg/kg, route intraperitoneal
[16] = AUCt in mouse plasma at 25 mg/kg, ip; type: ADME, organism-based; parameters: dose 25 mg/kg, route intraperitoneal
[17] = AUCt in rat plasma at 2 mg/kg, iv; type: ADME, organism-based; parameters: dose 2 mg/kg, route intravenous
[18] = AUC (infinity) in dog plasma at 10 mg/kg, po; type: ADME, organism-based, Canis lupus familiaris; parameters: time infinity, dose 10 mg/kg, route oral
[19] = Tmax in mouse brain at 25 mg/kg, ip; type: ADME, organism-based; parameters: dose 25 mg/kg, route intraperitoneal
Heart = assay: Drug level in mouse heart at 25 mg/kg, ip; type: ADME, organism-based; parameters: dose 25 mg/kg, route intraperitoneal; details: in vivo
[20] = Terminal half life in rat plasma at 2 mg/kg, iv; type: ADME, organism-based; parameters: dose 2 mg/kg, route intravenous; details: read-out: beta t1/2 (converted)
[21] = Terminal half life in dog plasma at 2 mg/kg, iv; type: ADME, organism-based, Canis lupus familiaris; parameters: dose 2 mg/kg, route intravenous; details: read-out: beta t1/2 (converted)
Rattus norvegicus [22] = assay: Prolongation of activated partial thromboplastin time in rat at 100 mg/kg/day, po; type: functional, organism-based
[23] = Tmax in rat plasma at 25 mg/kg, po; type: ADME, organism-based; parameters: dose 25 mg/kg, route oral
Rattus norvegicus [24] = assay: Prolongation of prothrombin time in rat at 100 mg/kg/day, po; type: functional, organism-based
[25] = Cmax in rat plasma at 25 mg/kg, po; type: ADME, organism-based; parameters: dose 25 mg/kg, route oral
[26] = Cytoprotectant activity against L-buthionine-(S,R)-sulfoximine-induced cell death in Leigh syndrome patient fibroblasts assessed as increase of cell viability; type: functional, cell-based; details: Homo sapiens, Fibroblast
[27] = Tmax in rat plasma at 10 mg/kg, po; type: ADME, organism-based; parameters: dose 10 mg/kg, route oral
[28] = Tmax in mouse plasma at 25 mg/kg, ip; type: ADME, organism-based; parameters: dose 25 mg/kg, route intraperitoneal
[29] = Volume of distribution at steady state in dog plasma at 2 mg/kg, iv; type: ADME, organism-based, Canis lupus familiaris; parameters: dose 2 mg/kg, route intravenous; details: read-out: Vdss
[30] = AUCt in dog plasma at 10 mg/kg, po; type: ADME, organism-based, Canis lupus familiaris; parameters: dose 10 mg/kg, route oral
Canis familiaris [31] = assay: Prolongation of prothrombin time in dog at 100 mg/kg/day, po; type: functional, organism-based; details: Canis lupus familiaris
[32] = AUC (infinity) in dog plasma at 2 mg/kg, iv; type: ADME, organism-based, Canis lupus familiaris; parameters: dose 2 mg/kg, route intravenous, time infinity
[33] = Terminal half life in dog plasma at 10 mg/kg, po; type: ADME, organism-based, Canis lupus familiaris; parameters: dose 10 mg/kg, route oral; details: read-out: beta t1/2 (converted)
Plasma [34] = assay: Volume of infusion in rat plasma at 2 mg/kg, iv; type: ADME, organism-based; parameters: dose 2 mg/kg, route intravenous; details: in vivo
Fibroblast [35] = assay: Ratio of compound EC50 to resveratrol EC50 for cytoprotectant activity in Friedreich ataxia patient fibroblasts; type: functional, Homo sapiens
CHO = assay: Genotoxicity in CHO cells assessed as induction of micronucleus; type: toxicity, cell-based, Cricetulus griseus; details: chinese hamster
[36] = Bioavailability in dog plasma at 10 mg/kg, po; type: ADME, organism-based, Canis lupus familiaris
Serum = assay: Drug level in mouse serum at 25 mg/kg, ip; type: ADME, organism-based; parameters: dose 25 mg/kg, route intraperitoneal; details: in vivo
[37] = Apparent volume of distribution in rat plasma at 2 mg/kg, iv; type: ADME, organism-based; parameters: dose 2 mg/kg, route intravenous; details: read-out: Vz
Canis familiaris [38] = assay: Prolongation of activated partial thromboplastin time in dog at 100 mg/kg/day, po; type: functional, organism-based; details: Canis lupus familiaris
[39] = Toxicity in rat administered orally once daily for 28 days; type: organism-based; details: in vivo, po
Fibroblast [40] = assay: Ratio of compound EC50 to co-enzyme Q10 EC50 for cytoprotectant activity in Friedreich ataxia patient fibroblasts; type: functional, Homo sapiens
[41] = Terminal half life in mouse brain at 25 mg/kg, ip; type: ADME, organism-based; parameters: dose 25 mg/kg, route intraperitoneal; details: read-out: beta t1/2 (converted)
Mus musculus [42] = assay: Ratio of drug level in mouse brain to serum at 25 mg/kg, ip
Brain [43] = assay: AUCt in mouse brain at 25 mg/kg, ip; type: ADME, organism-based; parameters: dose 25 mg/kg, route intraperitoneal; details: in vivo
[44] = Cmax in human plasma at 2 mg/kg, po; type: ADME, organism-based; parameters: dose 2 mg/kg, route oral
[45] = Cmax in mouse brain at 25 mg/kg, ip; type: ADME, organism-based; parameters: dose 25 mg/kg, route intraperitoneal
[46] = Drug level in dog retina at 300 mg/kg/day, po qd for 7 days; type: ADME, organism-based, Canis lupus familiaris; parameters: route oral; details: read-out: Drug uptake
[47] = Tmax in dog plasma at 10 mg/kg, po; type: ADME, organism-based, Canis lupus familiaris; parameters: dose 10 mg/kg, route oral
[48] = Cmax in dog plasma at 10 mg/kg, po; type: ADME, organism-based, Canis lupus familiaris; parameters: dose 10 mg/kg, route oral
[49] = Clearance in dog plasma at 2 mg/kg, iv; type: ADME, organism-based, Canis lupus familiaris; parameters: dose 2 mg/kg, route intravenous
[50] = Terminal half life in rat plasma at 10 mg/kg, po; type: ADME, organism-based; parameters: dose 10 mg/kg, route oral; details: read-out: beta t1/2 (converted)
Plasma [51] = assay: AUC (infinity) in rat plasma at 2 mg/kg, iv; type: ADME, organism-based; parameters: time infinity, dose 2 mg/kg, route intravenous; details: in vivo
[52] = Volume of distribution at steady state in rat plasma at 2 mg/kg, iv; type: ADME, organism-based; parameters: dose 2 mg/kg, route intravenous; details: read-out: Vdss
Plasma [53] = assay: Volume of infusion in dog plasma at 2 mg/kg, iv; type: ADME, organism-based, Canis lupus familiaris; parameters: dose 2 mg/kg, route intravenous; details: in vivo
Salmonella typhimurium = assay: Mutagenic activity in Salmonella Typhimurium by Ames test; type: toxicity, organism-based; details: salmonella enterica subsp. enterica serovar typhimurium
[54] = Drug level in dog cornea at 300 mg/kg/day, po qd for 7 days; type: ADME, organism-based, Canis lupus familiaris; parameters: route oral; details: read-out: Drug uptake
Fibroblast [55] = assay: Ratio of compound EC50 to idebenone EC50 for cytoprotectant activity in Friedreich ataxia patient fibroblasts; type: functional, Homo sapiens
[56] = AUCt in rat plasma at 25 mg/kg, po; type: ADME, organism-based; parameters: dose 25 mg/kg, route oral
[57] = Bioavailability in fasted rat plasma at 25 mg/kg, po; type: ADME, organism-based
[58] = AUC (infinity) in mouse plasma at 25 mg/kg, ip; type: ADME, organism-based; parameters: time infinity, dose 25 mg/kg, route intraperitoneal
[59] = Tmax in human plasma at 2 mg/kg, po; type: ADME, organism-based; parameters: dose 2 mg/kg, route oral
Fibroblast [60] = assay: Cytoprotectant activity against L-buthionine-(S,R)-sulfoximine-induced cell death in Leigh syndrome patient fibroblasts assessed as increase of cell viability up to 1000 nM; type: functional, cell-based; details: Homo sapiens
Fibroblast [61] = assay: Cytoprotectant activity against L-buthionine-(S,R)-sulfoximine-induced cell death in Friedreich ataxia patient fibroblasts assessed as increase of cell viability up to 1000 nM; type: functional, cell-based; details: Homo sapiens

## COC1=C(OC)C(=O)C(CCCCCCCCCCO)=C(C)C1=O [IDEBENONE]
[1]
  EC50: 0.85 µM

## Oc1ccc(/C=C/c2cc(O)cc(O)c2)cc1 [RESVERATROL]
[1]
  EC50: 1.44 µM

## CC(C)=CCC/C(C)=C/CC/C(C)=C/CC[C@]1(C)CCc2c(C)c(O)c(C)c(C)c2O1 [ALPHA-TOCOTRIENOL]
Rattus norvegicus [2]
  Stability: 7%
Rattus norvegicus [3]
  Stability: 5%

## CC(C)=CCC/C(C)=C/CC/C(C)=C/CC[C@@](C)(O)CCC1=C(C)C(=O)C(C)=C(C)C1=O [VATIQUINONE]
Mus musculus [4]
  Ratio: 0.71 mL/g
[5]
  AUC(0-t): 3.41 µg·h/mL
[6]
  NOAEL at 672 h: 100 mg/kg
[7]
  bioavailability: 89%
[8]
  AUC(0-t): 4.73 µg·h/mL
Brain [9]
  AUC: 10724 ng·h/g
[10]
  AUC(0-inf): 4.78 µg·h/mL
[11]
  Vd: 6.25 L/kg
[12]
  Cmax: 0.931 µg/mL
[13]
  concentration at 168 h: 10 µg/mL
[14]
  half-life: 7.6 h
[15]
  Cmax: 1.19 µg/mL
[16]
  AUC(0-t): 4.83 µg·h/mL
[17]
  AUC(0-t): 0.984 µg·h/mL
[18]
  AUC(0-inf): 2.82 µg·h/mL
[19]
  Tmax: 12 h
Heart
  Drug uptake: 848 ng/g
[20]
  half-life: 3.5 h
[21]
  half-life: 7.5 h
Rattus norvegicus [22]
  Activity: Active
[23]
  Tmax: 4 h
Rattus norvegicus [24]
  Activity: Active
[25]
  Cmax: 0.248 µg/mL
[26]
  EC50: 0.03 µM
[27]
  Tmax: 3.5 h
[28]
  Tmax: 0.5 h
[29]
  Vd: 2.54 L/kg
[30]
  AUC(0-t): 2.69 µg·h/mL
Canis familiaris [31]
  Activity: Active
[32]
  AUC(0-inf): 3.57 µg·h/mL
[33]
  half-life: 7.6 h
Plasma [34]
  Vi: 0.117 L/kg
Fibroblast [35]
  Ratio EC50: 100
CHO
  Activity: Non-toxic
[36]
  bioavailability: 17%
Serum
  Drug uptake: 300 ng/mL
[37]
  Vd: 3.73 L/kg
Canis familiaris [38]
  Activity: Active
[39]
  NOAEL at 672 h: 100 mg/kg
Fibroblast [40]
  Ratio EC50: 100
[1]
  EC50: 0.024 µM
[41]
  half-life: 12.4 h
Mus musculus [42]
  Ratio: 1.83 mL/g
Brain [43]
  AUCt: 7738 ng·h/g
[44]
  Cmax: 0.167 µg/mL
[45]
  Cmax: 539 ng/g
[46]
  concentration at 168 h: 11200 ng/g
[47]
  Tmax: 2.8 h
[48]
  Cmax: 0.442 µg/mL
[49]
  clearance: 0.574 L/h/kg
[50]
  half-life: 3.5 h
Plasma [51]
  AUC: 1.069 µg·h/mL
[52]
  Vd: 0.222 L/kg
Plasma [53]
  Vi: 0.095 L/kg
Salmonella typhimurium
  Activity: Non-toxic
[54]
  concentration at 168 h: 755 ng/g
Fibroblast [55]
  Ratio EC50: 100
[56]
  AUC(0-t): 0.961 µg·h/mL
[57]
  bioavailability: 4.1%
[58]
  AUC(0-inf): 5.86 µg·h/mL
[59]
  Tmax: 2 h

## COC1=C(OC)C(=O)C(C/C=C(\C)CC/C=C(\C)CC/C=C(\C)CC/C=C(\C)CC/C=C(\C)CC/C=C(\C)CC/C=C(\C)CC/C=C(\C)CC/C=C(\C)CCC=C(C)C)=C(C)C1=O
Fibroblast [60]
  Activity: inactive
Fibroblast [61]
  Activity: inactive
